Consider two compounds from patent publication US11332712B2, “Cell culture media and method for culturing breast cancer cells” (UNIVERSITY OF MIAMI, priority 2013, dated 2022).

“Also recorded” adds a separate entry of the source.

In one assay the test system is human breast tumor cells. As to the kind of experiment: Culture of human breast tumor cells, effect of medium components (Example 1). Format: cell-based. As to conditions: preliminary experiments; compared to Retinol. The procedure: The base WIT cell culture medium contains 0.1 mg/L Calciferol (vitamin D2) and this medium is supplemented with 2-5% fetal bovine serum (FBS) to culture human ovarian carcinoma cells (WIT-OC medium). It was hypothesized that both of these components should be removed from the cell culture medium for the successful culture of human breast cancer cells because FBS contains vitamins and hormones such as vitamin D and androgens. […] Thus, charcoal stripped fetal bovine serum (csFBS) was utilized to culture breast tumor cells because activated carbon removes non-polar material such as lipophilic (lipid-related) materials (virus, certain growth factors, hormones and cytokines) regardless of molecular weight but has little effect on salts, glucose, amino acids, etc. The WIT-OC medium also contained vitamin A acetate (Retinol) which is a weaker form of vitamin A, compared to all-trans-retinoic acid (ATRA).
Thus, in order to formulate a cell culture medium optimized to culture human breast tumor cells, as opposed to ovarian tumors, and other tumors, a WIT cell culture medium was prepared without any vitamin D, vitamin A, or androgens, and this medium was supplemented 100 nM ATRA, and 0.5-2% charcoal stripped fetal bovine serum (csFBS). We refer to this medium as WIT-BC, or WIT-BCe when estrogen is added.

Assay [1] has as its system breast cancer cell lines (T47D, ZR751, MCF7 and BT474). Nature of the assay: Breast cancer cell line proliferation assay with and without AR agonist (FIG. 8), trypan blue/Cellometer count. Type of assay: cell-based. As to conditions: 10 nM with 17 beta-Estradiol (10 nM), phenol-red free DMEM with 5% csFBS, 4 days. The procedure:
Four different breast cancer cell lines (T47D, ZR751, MCF7 and BT474) were cultured both with and without AR agonist […]. […] After 3 days, an AR agonist R1881 (10 nM) and 17 beta-Estradiol (10 nM) were added to the media. […] All the conditions were carried out in triplicate and the experiments were repeated at least twice.

Regarding `CC1=C(/C=C/C(C)=C/C=C/C(C)=C/C(=O)O)C(C)(C)CCC1` [ATRA, all-trans-retinoic acid], the “effect on growth/culture of breast tumor cells” value in the assay on human breast tumor cells is recorded as “promoting the growth of the breast tumor cells; also recorded: needed for the optimum culture”.

For the compound `C[C@]1(O)CC[C@H]2[C@@H]3CCC4=CC(=O)CCC4=C3C=C[C@@]21C` [R1881, methyltrienolone], the “effect on breast cancer cell proliferation” value in assay [1] is “inhibitory effect”.
